Laboratory results from the supplement of paper PMC10307832.

What was measured:
Experiment in all cases: relative viability (nuclei count vs DMSO), 5 days (fraction); higher = more cells survive
Vismodegib + Luminespib = compound: CS(=O)(=O)c1ccc(C(=O)Nc2ccc(Cl)c(-c3ccccn3)c2)c(Cl)c1 [Vismodegib] + CCNC(=O)c1noc(-c2cc(C(C)C)c(O)cc2O)c1-c1ccc(CN2CCOCC2)cc1 [Luminespib] (partner 0.01 µM)
Summary of the method: (§1)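 Lung cancer cell lines in 1536-well plates were dosed by pin tool the day after seeding, either with one drug alone or with a fixed anchor-drug dose plus five library-drug doses (not always all listed) in √10 steps. After 5 days, cells were fixed and their nuclei stained in one step (final 0.05% Triton X-100, 1% formaldehyde, 1 ug/ml Hoechst), then counted on 4× images. Relative viability is the nuclei count in treated wells divided by that in vehicle wells. Values are medians of duplicate plates.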

Vismodegib + Tozasertib = compound: CS(=O)(=O)c1ccc(C(=O)Nc2ccc(Cl)c(-c3ccccn3)c2)c(Cl)c1 [Vismodegib] + Cc1cc(Nc2cc(N3CCN(C)CC3)nc(Sc3ccc(NC(=O)C4CC4)cc3)n2)n[nH]1 [Tozasertib] (partner 0.1 µM)
Summary of the method: as §1

VE-821 + Tozasertib = compound: CS(=O)(=O)c1ccc(-c2cnc(N)c(C(=O)Nc3ccccc3)n2)cc1 [VE-821] + Cc1cc(Nc2cc(N3CCN(C)CC3)nc(Sc3ccc(NC(=O)C4CC4)cc3)n2)n[nH]1 [Tozasertib] (partner 0.1 µM)
Summary of the method: as §1

Ruxolitinib + AZD7762 = compound: N#CC[C@H](C1CCCC1)n1cc(-c2ncnc3[nH]ccc23)cn1 [Ruxolitinib] + NC(=O)Nc1cc(-c2cccc(F)c2)sc1C(=O)N[C@H]1CCCNC1 [AZD7762] (partner 0.2 µM)
Summary of the method: as §1

| Cell Line | relative viability (Vismodegib + Luminespib; first compound 0.08 µM) | relative viability (Vismodegib + Luminespib; first compound 0.253 µM) | relative viability (Vismodegib + Luminespib; first compound 0.8 µM) | relative viability (Vismodegib + Luminespib; first compound 2.53 µM) | relative viability (Vismodegib + Luminespib; first compound 8 µM) | relative viability (Vismodegib + Tozasertib; first compound 0.08 µM) | relative viability (Vismodegib + Tozasertib; first compound 0.253 µM) | relative viability (Vismodegib + Tozasertib; first compound 0.8 µM) | relative viability (Vismodegib + Tozasertib; first compound 2.53 µM) | relative viability (Vismodegib + Tozasertib; first compound 8 µM) | relative viability (VE-821 + Tozasertib; first compound 0.08 µM) | relative viability (VE-821 + Tozasertib; first compound 0.253 µM) | relative viability (VE-821 + Tozasertib; first compound 0.8 µM) | relative viability (VE-821 + Tozasertib; first compound 2.53 µM) | relative viability (VE-821 + Tozasertib; first compound 8 µM) | relative viability (Ruxolitinib + AZD7762; first compound 0.08 µM) | relative viability (Ruxolitinib + AZD7762; first compound 0.253 µM) | relative viability (Ruxolitinib + AZD7762; first compound 0.8 µM) | relative viability (Ruxolitinib + AZD7762; first compound 2.53 µM) | relative viability (Ruxolitinib + AZD7762; first compound 8 µM) |
| --- | --- | --- | --- | --- | --- | --- | --- | --- | --- | --- | --- | --- | --- | --- | --- | --- | --- | --- | --- | --- |
| HOP-62 | 0.916 | 0.914 | 0.981 | 0.93 | 0.877 | 0.307 | 0.327 | 0.345 | 0.343 | 0.332 | 0.399 | 0.404 | 0.349 | 0.382 | 0.361 | 0.437 | 0.796 | 0.564 | 0.627 | 0.704 |
| NCI-H1975 | 0.143 | 0.185 | 0.205 | 0.218 | 0.259 | 0.892 | 0.744 | 0.733 | 0.643 | 0.261 | 0.862 | 0.625 |  | 0.17 | 0.139 | 0.669 | 0.643 | 0.675 | 0.67 | 0.501 |
| NCI-H1755 | 0.403 | 0.327 | 0.39 | 0.366 | 0.461 | 0.568 | 0.575 | 0.534 | 0.556 | 0.524 | 0.667 | 0.543 | 0.539 | 0.532 | 0.428 | 0.497 | 0.465 | 0.573 | 0.471 | 0.343 |
| ChaGo-K-1 | 0.565 | 0.622 | 0.598 | 0.525 | 0.516 | 0.239 | 0.193 | 0.214 | 0.236 | 0.212 | 0.219 | 0.248 | 0.219 | 0.201 | 0.22 | 0.909 | 0.853 | 0.869 | 0.834 | 0.703 |
| NCI-H2342 | 0.588 | 0.728 | 0.748 | 0.79 | 0.71 | 0.508 | 0.492 | 0.477 | 0.511 | 0.461 | 0.434 | 0.489 | 0.45 | 0.415 | 0.365 | 0.429 | 0.447 | 0.488 | 0.422 | 0.649 |
| EKVX | 0.749 | 0.797 | 0.929 | 0.864 | 0.896 | 0.392 | 0.358 | 0.409 | 0.414 | 0.373 | 0.45 | 0.346 | 0.352 | 0.39 | 0.309 |  | 0.77 | 0.848 | 0.799 | 0.698 |
| LCLC-97TM1 | 0.699 | 0.725 | 0.746 | 0.76 | 0.826 | 0.22 | 0.284 | 0.218 | 0.239 | 0.273 | 0.307 | 0.224 | 0.213 | 0.484 | 0.184 | 0.401 | 0.267 | 0.317 | 0.287 | 0.53 |
| NCI-H2085 | 0.393 | 0.441 | 0.423 | 0.434 | 0.474 | 0.835 | 0.849 | 0.85 | 0.698 | 0.621 | 0.875 | 0.759 | 0.494 | 0.459 | 0.368 | 1.08 | 1.1 | 1.01 | 0.921 | 0.984 |
| BEN | 0.363 | 0.293 | 0.475 | 0.244 | 0.326 | 0.545 | 0.555 | 0.513 | 0.605 | 0.466 | 0.591 | 0.579 | 0.495 | 0.631 | 0.589 | 0.777 | 0.655 | 0.793 | 0.813 | 0.827 |
| HARA | 0.699 | 0.843 | 0.888 | 0.655 | 0.779 | 0.124 | 0.126 | 0.112 | 0.097 | 0.0937 | 0.109 | 0.111 | 0.106 | 0.112 | 0.0878 | 0.344 | 0.365 | 0.377 | 0.0804 | 0.304 |
| PC-14 | 0.132 | 0.137 | 0.151 | 0.165 | 0.14 | 0.554 | 0.606 | 0.556 | 0.539 | 0.547 | 0.592 | 0.585 | 0.483 | 0.531 | 0.54 |  | 0.356 | 0.363 | 0.347 | 0.359 |
| NCI-H1355 | 0.634 | 0.714 | 0.687 | 0.794 | 0.688 | 0.568 | 0.557 | 0.613 | 0.577 | 0.548 | 0.542 | 0.52 | 0.404 | 0.369 | 0.194 | 0.729 | 0.735 | 0.878 | 0.604 | 0.668 |
| NCI-H460 | 0.0373 | 0.0299 | 0.038 | 0.0291 | 0.0297 | 0.55 | 0.447 | 0.377 | 0.367 | 0.298 | 0.492 | 0.343 | 0.0499 | 0.0583 | 0.0489 |  | 0.626 | 0.696 | 0.656 | 0.676 |
| NCI-H2126 | 0.84 | 0.921 | 0.809 | 0.851 | 0.82 | 0.841 | 0.814 | 0.849 | 0.772 | 0.794 | 0.911 | 0.911 | 0.671 | 0.703 | 0.518 | 0.954 | 1.12 | 1.09 | 0.995 | 0.967 |
| LCLC-103H | 1.03 | 0.968 | 0.93 | 0.884 | 1.07 | 0.503 | 0.506 | 0.489 | 0.437 | 0.446 | 0.505 | 0.424 | 0.389 | 0.458 | 0.362 | 0.829 | 0.783 | 0.798 | 0.836 | 0.614 |
| H3255 | 0.798 | 0.996 | 0.799 | 0.818 | 0.857 | 0.524 | 0.55 | 0.623 | 0.606 | 0.563 | 0.74 | 0.777 | 0.633 | 0.639 | 0.612 | 0.783 | 0.868 | 1.08 | 0.774 | 0.743 |
